Data from patent publication US20240317744A1, “Bicyclic Ureas As Kinase Inhibitors” (Incyte Corporation, priority 2023, published 2024).

Experiments:
[1] = biological target: T1, pseudo-kinase domain (JH2, amino-acids 536-812) of human V617F mutant JAK2 (Homo sapiens, UniProt O60674, F794H/V617F/W659A/W777A); assay: JAK2 LanthaScreen JH2-V617F Binding Assay; settings: JAK2 JH2-V617F 0.26 nM, 50 nM tracer, 1 hour at 25° C.; read-out: JH2 BIND V617F
T1 construct: pseudo-kinase domain (JH2, amino-acids 536-812 with 3 surface mutations W659A, W777A, F794H); His (C); purchased BPS Bioscience 79498; host or cells: baculovirus expression system
T1 sequence (O60674 536-812 V617F/W659A/W777A/F794H): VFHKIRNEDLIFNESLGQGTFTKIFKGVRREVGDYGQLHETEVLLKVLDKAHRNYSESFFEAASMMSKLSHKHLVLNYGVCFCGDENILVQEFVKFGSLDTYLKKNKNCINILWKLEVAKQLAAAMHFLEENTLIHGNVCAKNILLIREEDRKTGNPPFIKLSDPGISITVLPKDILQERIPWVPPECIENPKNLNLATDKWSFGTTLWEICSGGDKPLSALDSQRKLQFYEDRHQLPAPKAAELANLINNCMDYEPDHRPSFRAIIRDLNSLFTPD
Summary of the method: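 Biotinylated His-Avi-tagged JH2 protein was baculovirus-expressed and used at 0.26 nM. It was incubated with compound, 50 nM fluorescent JH2 tracer and 0.25 nM streptavidin-Tb for 1 h at 25 °C in pH 7.5 Tris buffer with MgCl2, BSA, DTT. Non-specific binding was defined with 2 mM ATP. IC50 came from four-parameter fits of TR-FRET signal.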

[2] = biological target: catalytic domain (JH1, amino acids 808-1132) of human JAK2 (Homo sapiens, UniProt O60674); assay: JAK2 HTRF Enzyme Activity Assay; format: biochemical; settings: ATP 30 µM, 60 minutes at 25° C.; read-out: V617F ENZ 30 UM
Sequence of catalytic domain (JH1, amino acids 808-1132) of human JAK2 (O60674 808-1132 limits assumed): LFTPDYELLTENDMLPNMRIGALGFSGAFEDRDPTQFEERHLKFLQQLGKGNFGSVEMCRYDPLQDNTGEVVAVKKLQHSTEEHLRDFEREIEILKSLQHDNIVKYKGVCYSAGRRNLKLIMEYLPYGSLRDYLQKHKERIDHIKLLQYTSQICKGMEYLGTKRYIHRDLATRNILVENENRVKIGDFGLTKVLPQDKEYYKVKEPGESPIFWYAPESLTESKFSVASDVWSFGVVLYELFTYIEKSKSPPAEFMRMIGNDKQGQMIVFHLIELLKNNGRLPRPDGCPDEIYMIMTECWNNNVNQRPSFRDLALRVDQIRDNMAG

Compound: [2H]C([2H])([2H])n1c(=O)n([C@@H]2CC[C@]([2H])(NC(=O)OC)C2)c2cc(Nc3cc(C4CCOCC4)cc(-c4ncc(C(C)(C)O)s4)n3)ncc21 [Example 163, Methyl ((1S,3R)-3-(6-((6-(5-(2-hydroxypropan-2-yl)thiazol-2-yl)-4-(tetrahydro-2H-pyran-4-yl)pyridin-2-yl)amino)-3-(methyl-d3)-2-oxo-2,3-dihydro-1H-imidazo[4,5-c]pyridin-1-yl)cyclopentyl-1-d)carbamate]
- IC50 [1]: ≤ 10 nM
- IC50 [2]: 500 to 1000 nM

Compound: [2H]C([2H])([2H])n1c(=O)n([C@@H]2CC[C@@]([2H])(NC(=O)OC)C2)c2cc(Nc3cc(-c4cnccc4C(F)(F)F)cc(-c4ncc(C(C)(C)O)s4)n3)ncc21 [Example 164, Methyl ((1R,3R)-3-(6-((6′-(5-(2-hydroxypropan-2-yl)thiazol-2-yl)-4-(trifluoromethyl)-[3,4′-bipyridin]-2′-yl)amino)-3-(methyl-d3)-2-oxo-2,3-dihydro-1H-imidazo[4,5-c]pyridin-1-yl)cyclopentyl-1-d)carbamate]
- IC50 [1]: ≤ 10 nM
- IC50 [2]: > 1000 nM

Compound: [2H]C([2H])([2H])n1c(=O)n([C@@H]2CC[C@]([2H])(NC(=O)OC)C2)c2cc(Nc3cc(-c4cnccc4C(F)(F)F)cc(-c4ncc(C(C)(C)O)s4)n3)ncc21 [Example 165, Methyl ((1S,3R)-3-(6-((6′-(5-(2-hydroxypropan-2-yl)thiazol-2-yl)-4-(trifluoromethyl)-[3,4′-bipyridin]-2′-yl)amino)-3-(methyl-d3)-2-oxo-2,3-dihydro-1H-imidazo[4,5-c]pyridin-1-yl)cyclopentyl-1-d)carbamate]
- IC50 [1]: ≤ 10 nM
- IC50 [2]: > 1000 nM

Compound: [2H]C([2H])([2H])n1c(=O)n([C@@H]2CC[C@@]([2H])(NC(=O)OC)C2)c2cc(Nc3cc(C4CCN(C)CC4)cc(-c4ncc(C(C)(C)O)s4)n3)ncc21 [Example 166, Methyl ((1R,3R)-3-(6-((6-(5-(2-hydroxypropan-2-yl)thiazol-2-yl)-4-(1-methylpiperidin-4-yl)pyridin-2-yl)amino)-3-(methyl-d3)-2-oxo-2,3-dihydro-1H-imidazo[4,5-c]pyridin-1-yl)cyclopentyl-1-d)carbamate]
- IC50 [1]: ≤ 10 nM
- IC50 [2]: > 1000 nM

Compound: [2H]C([2H])([2H])n1c(=O)n([C@@H]2CC[C@@]([2H])(NC(=O)OC)C2)c2cc(Nc3cc(-c4cccnc4C(F)(F)F)cc(-c4ncc(C(C)(C)O)s4)n3)ncc21 [Example 167, Methyl ((1R,3R)-3-(6-((6′-(5-(2-hydroxypropan-2-yl)thiazol-2-yl)-2-(trifluoromethyl)-[3,4′-bipyridin]-2′-yl)amino)-3-(methyl-d3)-2-oxo-2,3-dihydro-1H-imidazo[4,5-c]pyridin-1-yl)cyclopentyl-1-d)carbamate]
- IC50 [1]: ≤ 10 nM
- IC50 [2]: > 1000 nM

Compound: [2H]C([2H])([2H])n1c(=O)n([C@@H]2CC[C@](C)(NC(C)=O)C2)c2cc(Nc3cc(-c4cnccc4C(F)(F)F)c4nc(C)c(-c5cnn(C(F)F)c5)n4n3)ncc21 [Example 168, N-((1S,3R)-3-(6-((3-(1-(Difluoromethyl)-1H-pyrazol-4-yl)-2-methyl-8-(4-(trifluoromethyl)pyridin-3-yl)imidazo[1,2-b]pyridazin-6-yl)amino)-3-(methyl-d3)-2-oxo-2,3-dihydro-1H-imidazo[4,5-c]pyridin-1-yl)-1-methylcyclopentyl)acetamide]
- IC50 [1]: ≤ 10 nM
- IC50 [2]: > 1000 nM

Compound: [2H]C([2H])([2H])n1c(=O)n([C@@H]2CC[C@@]([2H])(NC(=O)OC)C2)c2cc(Nc3cc(C(C)(C)O)c4nc(C)n(-c5cnn(C(F)F)c5)c4n3)ncc21 [Example 169, Methyl ((1R,3R)-3-(6-((3-(1-(difluoromethyl)-1H-pyrazol-4-yl)-7-(2-hydroxypropan-2-yl)-2-methyl-3H-imidazo[4,5-b]pyridin-5-yl)amino)-3-(methyl-d3)-2-oxo-2,3-dihydro-1H-imidazo[4,5-c]pyridin-1-yl)cyclopentyl-1-d)carbamate]
- IC50 [1]: ≤ 10 nM
- IC50 [2]: > 1000 nM
